Results: patent US8703821B2, “Dialkyl ether delivery agents” (Emisphere Technologies Inc., priority 2006, dated 2014)

Key:
[1] = Insulin oral delivery in rats; format: in vivo, rat; settings: oral gavage to fasted male Sprague-Dawley rats; dosing solution delivery agent 200 mg/ml + human recombinant insulin 0.5 mg/ml
[2] = Heparin (LMWH) oral delivery in rats, plasma LMWH by anti-Factor Xa assay; format: in vivo, rat; settings: male Sprague-Dawley rats, delivery agent 300 mg/kg, LMWH 100 IU/kg, volume 3 ml/kg, 25% aqueous propylene glycol
Procedure: Oral dosing solutions containing delivery agent compound and heparin sodium USP were prepared in 25% aqueous propylene glycol. Either the sodium salt of the delivery agent compound was used or the free acid was converted to the sodium salt with one equivalent of sodium hydroxide. The delivery agent compound and heparin (about 166-182 IU/mg) were mixed by vortex as dry powders. This dry mixture was dissolved in 25% v/v aqueous propylene glycol, vortexed, and placed in a sonicator (about 37° C.). The pH was adjusted to about 7 (6.5-8.5) with aqueous NaOH (2N). The dosing solution was sonicated to produce a clear solution. The final volume was adjusted to about 3.0 ml.
Male Sprague-Dawley rats were fasted for 24 hours and anesthetized with ketamine hydrochloride (88 mg/kg) intramuscularly immediately prior to dosing and again as needed to maintain anesthesia. A dosing group of five animals were administered one of the dosing solutions. An 11 cm Rusch 8 French catheter was adapted to a 1 ml syringe with a pipette tip. […]
Citrated blood samples were collected by cardiac puncture following the administration of ketamine (88 mg/kg), typically at 0.25, 0.5, 1.0 and 1.5 hours after dosing. […] LMWH absorption was verified by an increase in plasma LMWH measured by the anti-Factor Xa assay CHROMOSTRATE™ Heparin anti-Xa assay (available from Organon Teknika Corporation, Durham, N.C.).

| melting point | Structure (SMILES) | % Glucose Cmin (Rat) [1] | Mean Peak Plasma LMWH Concentration (IU/ml) ± SD [2] |
| --- | --- | --- | --- |
| 36 to 37 °C | O=C(O)COCCc1cccc(F)c1 [Compound 9] | −29.3% |  |
|  | COc1ccc(CCOCC(=O)O)cc1 [Compound 33] | −9.8% |  |
|  | O=C(O)COCCCc1ccc(Cl)cc1 [Compound 42] | −20.4% |  |
|  | Cc1cccc(COCC(=O)O)c1 [Compound 11] | −23.7% |  |
|  | O=C(O)COCCCCCc1ccccc1 [Compound 32] | −15.1% |  |
|  | O=C(O)COCCc1ccccc1 [Compound 34] | −32.2% |  |
|  | O=C(O)COCCc1ccccc1C(F)(F)F [Compound 27] | −11.3% |  |
|  | O=C(O)COCc1ccccc1F [Compound 18] | −14.6% |  |
|  | O=C(O)COCCc1ccc(Br)cc1 [Compound 39] | −31.6% |  |
|  | Cc1ccccc1CCOCC(=O)O [Compound 1, (2-o-Tolyl-ethoxy)-acetic acid] | −36.5% |  |
| 44 to 45 °C | Cc1ccc(COCC(=O)O)cc1 [Compound 10] | −46.6% |  |
|  | COc1ccc(CCCOCC(=O)O)cc1 [Compound 29] | −36.3% |  |
| 54 to 56 °C | Cc1ccc(COCC(=O)O)c(C)c1 [Compound 22] |  |  |
|  | O=C(O)COCc1ccccc1Cl [Compound 15] | −39.9% |  |
|  | O=C(O)COCCc1ccccc1Cl [Compound 5] | −39.7% |  |
|  | Cc1ccccc1CCCOCC(=O)O [Compound 31] | −6.1% |  |
| 51 to 52 °C | O=C(O)COCCc1ccc(Cl)cc1 [Compound 4] | −54.3% |  |
|  | O=C(O)COCCCCc1ccccc1 [Compound 26] | −21.0% |  |
|  | O=C(O)COCCc1ccccc1F [Compound 8] | −33.5% |  |
|  | O=C(O)COCc1ccc(F)cc1 [Compound 16] | −18.1% |  |
| 67 to 68 °C | O=C(O)COCCc1ccc(F)cc1 [Compound 7] | −41.9% |  |

| melting point | Structure (SMILES) | % Glucose Cmin (Rat) [1] | Mean Peak Plasma LMWH Concentration (IU/ml) ± SD [2] |
| --- | --- | --- | --- |
|  | Cc1ccc(CCCOCC(=O)O)cc1 [Compound 30] | −19.5% |  |
| 74 to 75 °C | Cc1ccc(C)c(COCC(=O)O)c1 [Compound 21] | −35.0% |  |
| 50 to 52 °C | Cc1ccc(CCOCC(=O)O)cc1 [Compound 2] | −54.3% |  |
| 42 to 43 °C | Cc1ccc(C)c(CCOCC(=O)O)c1 [Compound 24] | −24.7% |  |
|  | O=C(O)COCc1cccc(F)c1 [Compound 17] | −17.6% |  |
|  | COc1ccccc1CCOCC(=O)O [Compound 36] | −4.4% |  |
|  | COc1ccc(CCCCOCC(=O)O)cc1 [Compound 28] | −10.6% |  |
|  | O=C(O)COCc1ccc(Cl)cc1 [Compound 13] | −45.3% |  |
|  | Cc1cccc(CCOCC(=O)O)c1 [Compound 3, Sodium (2-m-Tolyl-ethoxy)-acetate] | −30.1% |  |
| 103 to 105 °C | Cc1cc(C)c(C)c(COCC(=O)O)c1C [Compound 20] |  |  |
|  | O=C(O)COCCc1cccc(Cl)c1 [Compound 6] | −20.9% |  |
|  | O=C(O)COCCCc1ccccc1 [Compound 35] | −26.1% |  |
|  | O=C([O-])CCCCCCCNC(=O)c1ccccc1O.[Na+] [Delivery Agent A, monosodium salt of N-(8-[2-hydroxybenzoyl]-amino)caprylic acid] |  | 0.984 IU/ml |
|  | O=C(O)COC1CCc2ccccc21 (stereo not drawn) [Compound 41] | −27.8% |  |
|  | O=C(O)COCCc1ccc(F)cc1Cl [Compound 37] | −30.0% |  |
| 53 to 54 °C | Cc1ccc(COCC(=O)O)cc1Cl [Compound 23] | −5.5% |  |
|  | O=C(O)COC1Cc2ccccc2C1 [Compound 40] | −15.8% |  |
| 81 to 83 °C | Cc1cc(C)c(COCC(=O)O)c(C)c1 [Compound 19, (2,4,6-Trimethyl-benzyloxy)-acetic acid] | −27.5% |  |
| 50 to 51 °C | Cc1cc(C)cc(CCOCC(=O)O)c1 [Compound 25] | −4.6% |  |
|  | O=C(O)COCc1cccc(Cl)c1 [Compound 14] | −35.3% |  |
